According to BindingDB's records for doi:10.1096/fj.02-0026fje (Chul, 2002):

Experiments:
[1] = biological target: T1, 17-beta-hydroxysteroid dehydrogenase type 1 (Homo sapiens, UniProt P14061); assay: Enzyme Inhibition on the Conversion of E2 to E1 by 17beta-HSD1; details: pH 7.5; 37 °C
T1 sequence (P14061 whole entry): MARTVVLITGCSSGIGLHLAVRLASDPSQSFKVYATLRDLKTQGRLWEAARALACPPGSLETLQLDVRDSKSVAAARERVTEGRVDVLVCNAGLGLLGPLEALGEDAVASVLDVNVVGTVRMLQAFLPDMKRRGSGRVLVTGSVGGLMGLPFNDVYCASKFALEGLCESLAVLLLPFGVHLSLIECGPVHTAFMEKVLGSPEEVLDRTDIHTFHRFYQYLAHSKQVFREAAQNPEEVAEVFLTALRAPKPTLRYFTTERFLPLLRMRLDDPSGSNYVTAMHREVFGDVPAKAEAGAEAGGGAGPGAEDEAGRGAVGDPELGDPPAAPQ
Text: For steady-state kinetic study of hybrid inhibitors, a Fluorolog 3 instrument was used to monitor the fluorescent signal of NADPH formed during estradiol oxidation, through which the substrate conversion is monitored. The excitation wavelength was 340 nm, and the emission wavelength was 460 nm. […] Ki was further determined by a plot of Km vs. the inhibitor concentration.

[2] = biological target: T1, 17-beta-hydroxysteroid dehydrogenase type 1; assay: Enzymatic Assay (Inhibition of Type 1 17beta-HSD); details: pH 7.4; 37 °C
Procedure: The enzymatic reaction was performed in the reaction buffer containing substrate, [14C]-estrone, and the test inhibitors. After the reaction, radiolabeled steroids were extracted from the reaction mixture, and solvent was evaporated to dryness. Steroids were dissolved and separated on TLC plates. Radioactivity signals were detected and quantified using a PhosphoImager (Sunny Vale, CA). The percentage of transformation of [14C]-E1 into [14C]-E2 was calculated. The IC50 values were calculated using an unweighted iterative least-squares method for four-parameter logistic curve fitting (DE50 program, CHUL Research Center, Quebec).

Structure (SMILES)	Ki [1]	IC50 [2]
C[C@]12CC[C@@H]3c4ccc(O)cc4CC[C@H]3[C@@H]1CC(CCCCCCCCC(=O)OCC1OC(n3cnc4c(N)ncnc43)C(O)C1O)[C@@H]2O (stereo not given in full) [EM1745]	3 nM	52 nM
C[C@]12CC[C@@H]3c4ccc(O)cc4CC[C@H]3[C@@H]1CC(CCCCCCCC(=O)OCC1OC(n3cnc4c(N)ncnc43)C(O)C1O)[C@@H]2O (stereo partly drawn) [[5-(6-amino-9H-purin-9-yl)-3,4-dihydroxyoxolan-2-yl]methyl 8-[(1S,10R,11S,14S,15S)-5,14-dihydroxy-15-methyltetracyclo[8.7.0.0^{2,7}.0^{11,15}]heptadeca-2,4,6-trien-13-yl]octanoate]	–	93 nM
C[C@]12CC[C@@H]3c4ccc(O)cc4CC[C@H]3[C@@H]1CC(CCCCCCCCCC(=O)OCC1OC(n3cnc4c(N)ncnc43)C(O)C1O)[C@@H]2O (stereo partly drawn) [[5-(6-amino-9H-purin-9-yl)-3,4-dihydroxyoxolan-2-yl]methyl 10-[(1S,10R,11S,14S,15S)-5,14-dihydroxy-15-methyltetracyclo[8.7.0.0^{2,7}.0^{11,15}]heptadeca-2,4,6-trien-13-yl]decanoate]	–	140 nM
CCCCCCCCC(=O)OCC1OC(n2cnc3c(N)ncnc32)C(O)C1O (stereo not given) [[5-(6-amino-9H-purin-9-yl)-3,4-dihydroxyoxolan-2-yl]methyl nonanoate]	250000 nM	–
